Read-outs that look alike come from different tables or passages of the source.
How the values were obtained:
in vivo = settings: mouse
[1] = Pharmacokinetic studies in healthy rats; format: in vivo; settings: male, Sprague-Dawley, rat, plasma, IV SD 10 mg/kg, generated in this study, read-out: AUCinf Observed
Description: Urine samples were collected at predetermined time intervals (0–6, 6–10, 10–24, 24–48 h) up to 48 h after dosing, volumes were recorded, and samples were processed by protein precipitation and analyzed by LC-MS/MS. The fraction of drug excreted unchanged (fe) in urine at each time interval and a cumulative fe were calculated.
An additional single dose intravenous study of spectinamide 1599 with destructive sampling was performed to obtain the tissue PK profiles in rats. In this study, groups of four rats (two male and two female) were euthanized either at 15 min or at 4 h after dosing, and blood, lung, liver, spleen, and kidneys were collected. For tissue samples, the tissues were weighed and homogenized in four volumes of phosphate buffered saline (1× PBS) and stored at −70 °C until LC-MS/MS analysis.
Sample preparation was performed by protein precipitation using methanol. […]
An API 4500 triple quadruple mass spectrometer (Applied Biosystems, Foster City, CA, USA) equipped with a turbospray ion source was operated in the positive ion mode. Selected reaction monitoring using precursor→product ion combinations of m/z 487.2→207.1, 418→207.1, and 365.1→333.2 was used for quantification of spectinamides 1599, 1810 and the IS spectinomycin, respectively.

[2] = Plasma protein binding by equilibrium dialysis (RED device), rat plasma; format: in vitro ADME, Sprague-Dawley rats; settings: Sprague-Dawley, 0.5 and 5 mg/L, 37 °C, read-out: fuPlasma fraction unbound in plasma
Description: (§1) Plasma protein binding was measured by equilibrium dialysis using a RED device (8 kDa molecular cutoff; Thermo Scientific, Rockford, IL, USA) containing plasma and buffer chambers for dialysis and a base plate. Two concentrations (0.5 and 5 mg/L) of 1599 and 1810 were prepared in mouse plasma from BALB/c mice and rat plasma from Sprague-Dawley rats, and an aliquot of 300 µL was added in the plasma chamber in duplicate. A 500 µL aliquot of PBS was added in the buffer chamber for dialysis. Then, the base plate was covered with sealing tape and incubated at 37 °C at approximately 100 rpm on an orbital shaker for 4 h to achieve equilibrium. After incubation, 50 µL of each sample was pipetted from the plasma and buffer chambers into separate micro-centrifuge tubes. A total of 50 µL of plasma was added to the buffer samples and an equal volume of PBS to the collected plasma samples and vortexed. Samples were processed by protein precipitation and analyzed for bound and unbound drug concentrations by liquid chromatography-tandem mass spectrometry (LC-MS/MS). Ranitidine (0.5 and 5 mg/L) was included as a positive control. The fraction of compound unbound to plasma proteins (fu) was calculated from the measured concentrations in the plasma and buffer chambers using the following equation:(1) fu=1−C(Plasma Chamber)−C(Buffer Chamber)/C(Plasma Chamber)

[3] = Integrated mouse and rat PBPK model, inter-animal variability; settings: Intravenous Estimate (%RSE); simultaneous fit of mouse and rat plasma and tissue data
[4] = Fraction unbound in epithelial lining fluid calculated by Poulin and Theil equation, rat; settings: epithelial lining fluid (calculated), calculated from fu in plasma and albumin ratio plasma/ELF, read-out: fuELF fraction unbound in epithelial lining fluid
Description: (§2) For intravenous administration, the bolus dose was assumed to be mixed instantaneously into the venous blood. For subcutaneous administration, the dose was administered as an external compartment, absorbed into the venous compartment via a first-order absorption rate constant and a bioavailability component. For intrapulmonary aerosol administration, we have modified the lung tissue by adding the epithelial lining fluid (ELF) sub-compartment, as shown in Figure 2. The physiological volume of the ELF sub-compartment was obtained from the literature. The dose was administered as an external compartment, absorbed into the ELF compartment via a first-order absorption rate constant and a bioavailability component. The compound was assumed to be bound to the ELF proteins, and only the unbound fraction was distributed to the other sub-compartments of the lungs and ultimately to the systemic circulation. The fraction unbound in ELF was calculated from the fraction unbound in plasma and the albumin ratio between plasma and ELF using the equation described by Poulin and Theil.

[5] = Plasma protein binding by equilibrium dialysis (RED device), mouse plasma; format: in vitro ADME, BALB/c mice; settings: BALB/c; Mouse plasma, 0.5 and 5 mg/L, 37 °C, 4 h; read-out: fuPlasma fraction unbound in plasma
Description: as §1

plasma proteins = experiment: as above; format: in vitro ADME, BALB/c mice; settings: mouse and rat
Description: as §1

[6] = cited from earlier work; for AUCinf Liver Observed / AUCinf Lung Observed / AUCinf Observed / AUCinf Spleen Observed: healthy mice; for AUCinf Observed: plasma
[7] = Parallel artificial membrane permeability assay (PAMPA); format: in vitro ADME; settings: passive permeability could not be determined
[8] = Minimalistic PBPK model, mouse (fitting and simulation)
[9] = Fraction unbound in epithelial lining fluid calculated by Poulin and Theil equation, mouse; settings: epithelial lining fluid (calculated), calculated from fu in plasma and albumin ratio plasma/ELF, read-out: fuELF fraction unbound in epithelial lining fluid
Description: as §2

[10] = Subcutaneous PBPK model predictions vs observed plasma concentrations in Mtb infected mice; format: in vivo, BALB/c mice; settings: SC dose-ranging and dose-fractionation studies
[11] = Intravenous Estimate (%RSE), model fitted to IV single dose 10 mg/kg plasma and tissue data

Compound `CN[C@@H]1[C@H](O)[C@H](NC)[C@H]2O[C@]3(O)[C@H](O[C@@H]2[C@H]1O)O[C@H](C)C[C@H]3NC(=O)Cc1ccc(O)cn1` [Spectinamide 1810, 2-(5-hydroxypyridin-2-yl)-N-((2R,4R,4aS,5aR,6S,7S,8R,9S,9aR,10aS)-4a,7,9-trihydroxy-2-methyl-6,8-bis(methylamino)decahydro-2H-benzo[b]pyrano [2,3-e] [1,4]dioxin-4-yl)acetamide] has a half-life (in vivo) of 5 min, a bioavailability (in vivo; sc) of 100% and an AUC(0-inf) [1] of 20800 ng·h/mL. The fraction unbound at 4 h [2] was 0.607, the “ω KI→COther inter-animal variability on KI→COthers” value [3] was 0.31 (14.7) and the fraction unbound [4] was 0.95. For the same compound, the fraction unbound at 4 h [5] was 0.693, the “plasma protein binding” value (plasma proteins) was “low plasma protein binding” and the “dose dependency of disposition” value ([6]; dose range of 10 to 400 mg/kg in mice) was “did not suggest any dose dependencies”. For the same compound, the “AUCinf Liver Observed” value ([6]; IV QD5 10 mg/kg) was 51.2 µg·h/g, the “AUCinf Liver Observed” value ([6]; IV SD 10 mg/kg) was 31.6 µg·h/g and the “AUCinf Lung Observed” value ([6]; IV QD5 10 mg/kg) was 11.2 µg·h/g. The “AUCinf Lung Observed” value ([6]; IV SD 10 mg/kg) was 5.75 µg·h/g, the “AUCinf Observed” value ([6]; IV QD5 10 mg/kg) was 9450 ng·h/mL and the “AUCinf Observed” value ([6]; IV SD 10 mg/kg) was 7910 ng·h/mL. The “AUCinf Observed” value ([6]; SC QD5 50 mg/kg) was 65500 ng·h/mL, the “AUCinf Observed” value ([6]; SC QD5 200 mg/kg) was 265000 ng·h/mL and the “AUCinf Observed” value ([6]; SC SD 46 mg/kg) was 38600 ng·h/mL. The “AUCinf Observed” value ([6]; SC SD 50 mg/kg) was 67900 ng·h/mL, the “AUCinf Observed” value ([6]; SC SD 200 mg/kg) was 267000 ng·h/mL and the “AUCinf Spleen Observed” value ([6]; IV QD5 10 mg/kg) was 9.45 µg·h/g. The “AUCinf Spleen Observed” value ([6]; IV SD 10 mg/kg) was 4.29 µg·h/g, the “PAMPA concentrations in the acceptor compartment” value [7] was “below the limit of detection” and the “KC→IKidney 1st order back flux from cellular sub compartment of the kidney” value [8, 11] was 0.097 (45.1) 1/h. For the same compound, the “KC→ILiver 1st order back flux from cellular sub compartment of the liver” value [8, 11] was 0.051 (17.2) 1/h, the “KC→ILung 1st order back flux from cellular sub compartment of the lung” value [8, 11] was 0.076 (17.6) 1/h and the “KC→ISpleen 1st order back flux from cellular sub compartment of the spleen” value [8, 11] was 0.013 (120) 1/h. The “KC→Iothers 1st order back flux from cellular sub compartment of the other tissues” value [8, 11] was 7.0 × 10^−5 (0.00278) 1/h, the “Ka 1st order absorption rate constant” value ([8]; Subcutaneous Estimate (%RSE), healthy mice) was 8.26 (14.5) and the fraction unbound [9] was 0.965. The “difference in pharmacokinetics between healthy and infected mice” value [10] was “no significant difference”.

— PMC10305115, “Development of a Minimalistic Physiologically Based Pharmacokinetic (mPBPK) Model for the Preclinical Development of Spectinamide Antibiotics” (Pharmaceutics, 2023)
